# Source: patent US20260224720A1, “ECTEINASCIDIN DERIVATIVE ANTIBODY DRUG CONJUGATES” (priority 2023, published 2026)
# pIC50: −log10 of the molar value.
# Columns and labels:
# HCC1954 (Her2 positive) = assay: Adherent cells cytotoxicity assay (CellTiter-Glo), HCC1954; assay type: cell-based; conditions: Homo sapiens, 3 to 5 days
# Description: (§1) Adherent cells were cultured in a T75 flask to ~50-80% confluency and harvested with trypsin into a single cell suspension. Three to five thousand (3,000-5,000) cells per well were seeded in tissue culture plates in 50 μL/well culture media and incubated at 37° C. for 18-24 hours. Serial dilutions of ADCs in culture media were then dispensed into the plates at 50 μL/well. After plating and treatment, cells were returned to the incubator for an additional 3 to 5 days. CellTiter-Glo reagent was prepared per manufacturer's instructions and added at 100 μL/well to the cultures. CellTiter-Glo allows for relative enumeration of metabolically active cells by quantifying intracellular ATP concentrations. […] Luminescence signals were detected using a standard plate reader and IC50s were calculated by logistic nonlinear regression using GraphPad Prism (GraphPad Software, San Diego, CA).
# [1] = system: Confluent HCC1954 (Her2 positive); assay: Adherent cells cytotoxicity assay (CellTiter-Glo), confluent HCC1954; assay type: cell-based; conditions: Homo sapiens
# SKBR3 (Her2 positive) = assay: Adherent cells cytotoxicity assay (CellTiter-Glo), SKBR3; assay type: cell-based; conditions: Homo sapiens, SK-BR-3, 3 to 5 days
# Description: as §1
# SUDHL1 (CD30 positive) = assay: Suspension cells cytotoxicity assay (CellTiter-Glo), SUDHL1; assay type: cell-based; conditions: Homo sapiens, SU-DHL-1, 3-5 days
# Description: Three to five thousand (3,000-5,000) cells per well were seeded in tissue culture plates in 50 μL/well culture media and incubated at 37° C. for 18-24 hours.
# Serial dilutions of ADCs in culture media were then dispensed into the plates at 50 μL/well. […] CellTiter-Glo reagent was prepared per manufacturer's instructions and added at 100 μL/well to the cultures. CellTiter-Glo allows for relative enumeration of metabolically active cells by quantifying intracellular ATP concentrations. […] Luminescence signals were detected using a standard plate reader and IC50s were calculated by logistic nonlinear regression using GraphPad Prism (GraphPad Software, San Diego, CA).
# [2] = male mice, previously reported; cited from earlier work
Structure (SMILES),pIC50 (HCC1954 (Her2 positive)),pIC50 [1],pIC50 (SKBR3 (Her2 positive)),pIC50 (SUDHL1 (CD30 positive)),maximum tolerated dose (MTD) [2] [mg/kg]
COc1ccc2[nH]c3c(c2c1)CCN(C(N1CCCC1)N1CCCC1)[C@]31CS[C@@H]2c3c(OC(C)=O)c(C)c4c(c3[C@H](COC1=O)N1C2[C@H]2c3c(cc(C)c(OC)c3O)C[C@@H](C1O)N2C)OCO4 (some centres unmarked) [Lurbinectedin Derivative 1],8.59,8.43,9.27,9.20,–
COc1cc2c(cc1O)CCN[C@]21CS[C@@H]2c3c(OC(C)=O)c(C)c4c(c3[C@H](COC1=O)N1[C@@H]2[C@H]2c3c(cc(C)c(OC)c3O)C[C@@H]([C@@H]1O)N2C)OCO4 [trabectedin],–,–,–,–,0.15
